This note sets out measurements from US20250382302A1, “Anticancer polyheterocyclic compounds and associated methods” (University of Denver, priority 2024, published 2025).

The structures appear in SMILES notation. Bounds are passed on as bounds.

The test system of test [1] is KM12. The experiment in a line: cells. The conditions noted are these: Homo sapiens.
The subject of a further test is NCI-H522. The test is described as follows: NCI five-dose testing, NCI-H522. The conditions noted are these: for GI50 / CC50: Homo sapiens; for GI50 / TGI: NCI-H522; for CC50: NCI-H522, read-out: LC50; for TGI: Non-Small Cell Lung Cancer.
A further test deals with RPMI-8226. The experiment in a line: NCI five-dose testing, RPMI-8226. The conditions noted are these: for GI50 / CC50: Homo sapiens; for GI50 / TGI: RPMI-8226; for CC50: RPMI-8226, read-out: LC50; for TGI: Leukemia.
Another test deals with MDA-MB-468. The experiment in a line: NCI five-dose testing, MDA-MB-468. The conditions noted are these: for TGI: Breast Cancer; for TGI / GI50: MDA-MB-468; for GI50 / CC50: Homo sapiens; for CC50: MDA-MB-468, read-out: LC50.
The test system of another test is OVCAR-3. The experiment in a line: NCI five-dose testing, OVCAR-3. The conditions noted are these: for GI50 / CC50: Homo sapiens; for GI50 / TGI: OVCAR-3; for CC50: OVCAR-3, read-out: LC50; for TGI: Ovarian Cancer.
The test system of another test is T-47D. The experiment in a line: NCI five-dose testing, T-47D. The settings on record: for TGI: Breast Cancer, T-47D; for GI50 / CC50: Homo sapiens, T47D; for CC50: read-out: LC50.
Test [2] has as its system KM12. The conditions noted are these: Colon Cancer.
A further test has as its system HL-60(TB). The test is described as follows: NCI five-dose testing, HL-60(TB). The settings on record: for GI50 / CC50: Homo sapiens; for GI50: HL-60; for CC50: HL-60, read-out: LC50; for TGI: Leukemia, HL-60(TB).
The subject of a further test is K-562. The experiment in a line: NCI five-dose testing, K-562. The conditions noted are these: for GI50 / CC50: Homo sapiens; for GI50: K562; for CC50: K562, read-out: LC50; for TGI: Leukemia, K-562.
For another test, the system named is MOLT-4. The test is described as follows: NCI five-dose testing, MOLT-4. The settings on record: for GI50 / CC50: Homo sapiens; for GI50 / TGI: MOLT-4; for CC50: MOLT-4, read-out: LC50; for TGI: Leukemia.
In another test the test system is CCRF-CEM. The experiment in a line: NCI five-dose testing, CCRF-CEM. The settings on record: for GI50 / CC50: Homo sapiens; for CC50: read-out: LC50; for TGI: Leukemia.
The next test concerns SR. The test is described as follows: NCI five-dose testing, SR. The conditions noted are these: for GI50 / CC50: Homo sapiens; for CC50: read-out: LC50; for TGI: Leukemia.
The next test relates to MCF7. The experiment in a line: NCI five-dose testing, MCF7. The settings on record: for TGI: Breast Cancer; for TGI / GI50: MCF7; for GI50 / CC50: Homo sapiens; for CC50: MCF7, read-out: LC50.
The subject of another test is OVCAR-4. The experiment in a line: NCI five-dose testing, OVCAR-4. The conditions noted are these: for GI50 / CC50: Homo sapiens; for GI50 / TGI: OVCAR-4; for CC50: OVCAR-4, read-out: LC50; for TGI: Ovarian Cancer.
In a further test the test system is SK-MEL-2. The test is described as follows: NCI five-dose testing, SK-MEL-2. Type of test: cell-based. The settings on record: Melanoma.
The subject of a further test is SK-MEL-5. The experiment in a line: NCI five-dose testing, SK-MEL-5. The conditions noted are these: Melanoma; for GI50 / CC50: Homo sapiens; for CC50: read-out: LC50 (the source's name). The test is classed as cell-based.
Another test deals with IGROV1. The test is described as follows: NCI five-dose testing, IGROV1. Type of test: cell-based. The conditions noted are these: for GI50 / CC50: Homo sapiens, IGROV-1, Ovarian Cancer; for CC50: read-out: LC50 (the source's name); for TGI: Ovarian Cancer.
In another test the test system is RXF 393. The test is described as follows: NCI five-dose testing, RXF 393. The test is classed as cell-based. The settings on record: Renal Cancer.
The next test has as its system EKVX. The test is described as follows: NCI five-dose testing, EKVX. Type of test: cell-based. The settings on record: Non-Small Cell Lung Cancer.
Setting [3] is: Homo sapiens, read-out: LC50 (the source's name).

As to `COc1cccc(OC)c1N(Cc1ccoc1)C(=O)C(=O)NC1=CC(=O)c2ccccc2C1=O`, the GI50 (usually the concentration at which growth is held to half of that of the control) in the test with KM12 [1] (KM12) was 1250 nM; in the test on NCI-H522, 1330 nM; in the test on RPMI-8226, 1300 nM; with MDA-MB-468 it was 251 nM; in the test with OVCAR-3, 1180 nM; in the test with T-47D, 1480 nM. Moreover, the GI50 was 282 nM in the test with HL-60(TB), 1460 nM with K-562, 462 nM in the test with MOLT-4 and 437 nM in the test on CCRF-CEM. In addition, the CC50 in the test with KM12 [1] (KM12, read-out: LC50) was 9840 nM; in the test with NCI-H522 it was 5140 nM; with RPMI-8226 it was 5120 nM; in the test with MDA-MB-468, 3020 nM; with OVCAR-3, 4960 nM; in the test with T-47D, 5340 nM. Also, the CC50 is 1480 nM with HL-60(TB), 5370 nM in the test on K-562, 3980 nM in the test with MOLT-4 and 3890 nM with CCRF-CEM. Moreover, the TGI is on record as 2.61 × 10^−6 in the test with NCI-H522; 2.57 × 10^−6 with RPMI-8226; 8.99 × 10^−7 with MDA-MB-468; 2.42 × 10^−6 with OVCAR-3; 2.81 × 10^−6 in the test with T-47D; 3.51 × 10^−6 in the test with KM12 [2]. For the same compound, the TGI in the test on HL-60(TB) is 5.69 × 10^−7; with K-562 it was 2.80 × 10^−6; in the test with MOLT-4 it was 1.57 × 10^−6; in the test with CCRF-CEM, 1.48 × 10^−6.

As to `COC1C[C@H]2C[C@]34CC3[C@H]2[C@]23C4C4=C(C(=O)c5ccccc5C4=O)N2C(=O)C(=O)N13` (stereo partly drawn), in the test on MDA-MB-468, the TGI is listed as 3.18 × 10^−6, the GI50 was 1310 nM and the CC50 was 7730 nM. In addition, in the test on OVCAR-3, the GI50 is 1490 nM, the CC50 was 19600 nM and the TGI is reported as 4.93 × 10^−6.

Take `COC1=C[C@H]2[C@H]3C[C@@H]1CN1C(=O)C(=O)N4C5=C(C(=O)c6ccccc6C5=O)[C@]3(OC)[C@]214`: in the test with SR, growth was halved (GI50) at 1400 nM, the CC50 was 5310 nM and the TGI is recorded as 2.72 × 10^−6. Further, in the test with RPMI-8226, the 50% growth inhibitory concentration (GI50) was found to be 803 nM, the CC50 was found to be 4710 nM and the TGI was 2.05 × 10^−6. Further, in the test with MCF7, the TGI is given as 2.94 × 10^−6, the GI50 turned out to be 921 nM and the CC50 stood at 8870 nM.

Regarding `C[C@]12C3=C(C(=O)c4ccccc4C3=O)N3C(=O)C(=O)N4C[C@H]5C[C@@]16CC6[C@@]5(C)[C@@]432` (stereo partly drawn), the TGI in the test on MDA-MB-468 is reported as 1.55 × 10^−6; in the test with OVCAR-4 it was 2.65 × 10^−6; in the test on SK-MEL-2 it was 2.57 × 10^−6; with HL-60(TB), 1.06 × 10^−6; in the test on SK-MEL-5, 3.08 × 10^−6; in the test with CCRF-CEM it was 2.48 × 10^−6. Moreover, the GI50 in the test on MDA-MB-468 is 384 nM; in the test with OVCAR-4, 1360 nM; in the test with SK-MEL-2 (Homo sapiens), 1270 nM; in the test on HL-60(TB), 267 nM; in the test on SK-MEL-5, 1300 nM; with CCRF-CEM it was 1230 nM. Besides, the CC50 in the test with MDA-MB-468 is 4030 nM; in the test with OVCAR-4, 5170 nM; in the test on SK-MEL-2 (setting [3]), 5200 nM; in the test on HL-60(TB), 3280 nM; with SK-MEL-5 it was 7320 nM; with CCRF-CEM, 5000 nM.

Regarding `C=CCN(C(=O)C(=O)NC1=CC(=O)c2ccccc2C1=O)c1ccsc1C(=O)OC`, the GI50 in the test on NCI-H522 was 1450 nM; in the test on RPMI-8226, 1470 nM; with MDA-MB-468, 226 nM; with T-47D it was 1320 nM; with HL-60(TB), 1080 nM; with K-562 it was 1450 nM. Moreover, the GI50 was 1110 nM with MOLT-4 and 1300 nM with CCRF-CEM. Also, the CC50 in the test with NCI-H522 was 5280 nM; in the test with RPMI-8226, 5280 nM; with MDA-MB-468, 3090 nM; in the test with T-47D, 5140 nM; in the test with HL-60(TB), 4790 nM; in the test on K-562, 5280 nM. Moreover, the values for the CC50 with MOLT-4 and in the test with CCRF-CEM were 4810 nM and 5070 nM, respectively. Further, the TGI in the test on NCI-H522 is 2.77 × 10^−6; in the test with RPMI-8226 it was 2.79 × 10^−6; in the test with MDA-MB-468, 9.41 × 10^−7; with T-47D it was 2.61 × 10^−6; in the test on HL-60(TB), 2.27 × 10^−6; with K-562 it was 2.77 × 10^−6. The TGI with MOLT-4 is given as 2.31 × 10^−6; in the test on CCRF-CEM it was 2.57 × 10^−6.

In the case of `COC1=C[C@H]2C3=C(C(=O)c4ccccc4C3=O)N3C(=O)C(=O)N(Cc4ccco4)[C@]23C=C1`, in the test with MDA-MB-468, the TGI is given as 1.35 × 10^−6, halving of growth (GI50) required 177 nM and the CC50 was 7960 nM. In the test on IGROV1, growth was halved (GI50) at 1380 nM, the CC50 was no less than 100000 nM and the TGI is listed as 6.38 × 10^−6. Besides, in the test with SK-MEL-5, it took 1130 nM to inhibit growth by half (GI50), the CC50 was determined as 9080 nM and the TGI is on record as 3.21 × 10^−6.

For `C=CCCOC1=C[C@H]2C3=C(C(=O)c4ccccc4C3=O)N3C(=O)C(=O)N(Cc4ccc(C)cc4)[C@]23C=C1`, in the test on SR, halving of growth (GI50) required 862 nM, the CC50 was no less than 100000 nM and the TGI was 1.00 × 10^−4. Further, in the test with MDA-MB-468, the TGI is listed as 6.86 × 10^−7, the GI50 is 20.9 nM and the CC50 is no less than 100000 nM. Besides, in the test on OVCAR-4, the concentration for 50% growth inhibition (GI50) is 875 nM, the CC50 is no less than 100000 nM and the TGI is on record as 7.04 × 10^−6.

In the case of `COC1=CC2C3=C(C(=O)c4ccccc4C3=O)N3C(=O)C(=O)N(Cc4ccsc4)[C@]23C=C1` (stereo partly drawn), the TGI in the test on MDA-MB-468 is 8.16 × 10^−7; in the test on IGROV1, 1.40 × 10^−5; in the test with SK-MEL-5 it was 2.16 × 10^−6; in the test with RXF 393, 3.76 × 10^−6; in the test on EKVX it was 5.75 × 10^−6; with MCF7 it was 5.88 × 10^−6. Further, the GI50 in the test on MDA-MB-468 was 113 nM; with IGROV1, 1270 nM; with SK-MEL-5 it was 10 nM; in the test on RXF 393 (Homo sapiens), 1430 nM; with EKVX (Homo sapiens), 1110 nM; in the test with MCF7, 1260 nM. Further, the CC50 came out at 9320 nM in the test with MDA-MB-468; 70500 nM in the test with IGROV1; 6040 nM in the test with SK-MEL-5; 9920 nM with RXF 393 (setting [3]); 25700 nM with EKVX (setting [3]); 25200 nM in the test with MCF7.

For `O=C1C2=C(C(=O)c3ccccc31)N1C(=O)N(Cc3ccccc3)C[C@@]13C=C[C@@H]2O3`, in the test on MDA-MB-468, the TGI was 1.59 × 10^−6, it took 472 nM to inhibit growth by half (GI50) and the CC50 is 4080 nM. In the test on T-47D, the TGI was 3.26 × 10^−6, the GI50 was found to be 1390 nM and the CC50 turned out to be 7640 nM.

On to `O=C1C=C(NC(=O)[C@H](Cc2ccccc2)n2cccc2)C(=O)c2ccccc21`, for which, in the test on T-47D, the TGI is listed as 2.74 × 10^−6, it took 1420 nM to inhibit growth by half (GI50) and the CC50 was 5260 nM. Also, in the test on MOLT-4, the GI50 is 685 nM, the CC50 is 4290 nM and the TGI was 1.84 × 10^−6. Moreover, in the test with CCRF-CEM, the GI50 is 1110 nM, the CC50 amounted to 4840 nM and the TGI is listed as 2.32 × 10^−6.
